Test results as given in publication PMC12693182, “Synthesis and QSAR Studies of Claramine Derivatives, a New Class of Broad-Spectrum Antimicrobial Agents” (Molecules, 2025).
Values after ≈ are worked out from the molar mass of the structure shown.

Columns and labels:
[1] = tested on: S. aureus 340; assay: MIC, broth microdilution; type: cell-based, Staphylococcus aureus; details: Staphylococcus aureus, 340, 24 h
Experimental: (§1) Antimicrobial activity of the compounds was studied by determination of minimal inhibitory concentrations (MIC) according to the NCCLS guidelines M7-A2 using the microbroth dilution methods. The bacteria strains were grown on trypticase soy agar (Becton Dickinson) at 37 °C for 24 h. Inocula were prepared in TCE (tryptone 0.1%, […], wt/vol) by ajusting the turbidity at 623 nm to obtain 1–3 10^5 CFU/mL.
(§2) Antimicrobial activities of the compounds were determined by using a broth microdilution method performed in sterile 96-well microplates. All compounds were solubilized in water at a concentration of 10 mM and were transferred to each microplate well in order to obtain a two-fold serial dilution in 100 µL of broth and 100 µL of inoculum containing 2–6 10^5 CFU of each bacterium were added to each well. Some wells were reserved for positive controls and inoculum viability.

[2] = tested on: P. aeruginosa 1051575; assay: MIC, broth microdilution; type: cell-based, Pseudomonas aeruginosa; details: Pseudomonas aeruginosa, 1051575, 24 h, 24 h
Experimental: as §1, §2

[3] = tested on: Chinese hamster Ovary cells (CHO-K1); assay: Cytotoxicity assay (WST-1 / Neutral Red); type: cell-based; details: 24-h incubation; for IC50: Cricetulus griseus, 24 h
Experimental: The cytotoxic activities of compounds were assessed on Chinese hamster Ovary cells (CHO-K1) provided from ATCC-LGC Standards Sarl (Molsheim, France). Cells were maintained in Mc Coy’s 5A (CHO) medium supplemented with 10% bovine calf serum, 2 mM glutamine, and 100 U mL^−1/10 µg mL^−1 penicillin/streptomycin mixtures. For the cytotoxicity experiments, they were seeded in 96-well plates and incubated at 37 °C in humidified atmosphere containing 5% CO2 overnight, then concentrations of compounds were incorporated in triplicate cultures. After a 24-h incubation period at 37 °C, cells were submitted to three successive washes in phosphate buffer saline (PBS) and cell viability was evaluated by two different vital dyes: • i. A first set of cell cultures was incubated in PBS containing 10% WST-1 for 30 min at 37 °C, 5% CO2. Cell viability was evaluated by the assessment of WST-1 absorbance at 450 nm in a microplate spectrophotometer. • ii. A second set of cell cultures was placed into Neutral Red medium (50 μg mL^−1 Neutral Red in complete medium) and incubated for 3 h at 37 °C, 5% CO2. Then the Neutral Red medium was removed and the distaining solution (50% ethanol, 1% acetic acid, 49% distilled water; 50 µL per well) was added into the wells. The plates were shaken for 15–20 min at room temperature in the dark. Cell viability was evaluated by the assessment of absorbance at 540 nm in a microplate spectrophotometer.
Results were expressed as percentages of cell viability about the control (culture medium-only), which corresponded to 100% cell viability. Dose-response curves were calculated by non-linear regression analysis with TableCurve 2D software (V 5.0.1) (Systat Software Inc., San Jose, CA, USA). The Inhibitory Concentration 50% (IC50) was defined as the concentration of compounds that induced a 50% decrease of viable cells.

[4] = tested on: S. aureus ATCC 25923; assay: MIC, broth microdilution; type: cell-based, Staphylococcus aureus; details: Staphylococcus aureus, ATCC25923, 24 h, ATCC strain
Experimental: as §1, §2

[5] = tested on: S. intermedius 1051997; assay: MIC, broth microdilution; type: cell-based, Staphylococcus intermedius; details: Staphylococcus intermedius, 1051997, 24 h, 24 h
Experimental: as §1, §2

[6] = tested on: E. faecalis ATCC29212; assay: MIC, broth microdilution; type: cell-based, Enterococccus faecalis; details: Enterococcus faecalis, ATCC29212, 24 h, ATCC strain, read-out: MIC E. faecalis 29212
Experimental: as §1, §2

[7] = tested on: E. coli 1956; assay: MIC, broth microdilution; type: cell-based, Escherichia coli; details: Escherichia coli, 1956, 24 h
Experimental: as §1, §2

[8] = tested on: E. coli ATCC 25922; assay: MIC, broth microdilution; type: cell-based, Escherichia coli; details: Escherichia coli, ATCC25922, 24 h, ATCC strain
Experimental: as §1, §2

[9] = tested on: P. aeruginosa ATCC 27853; assay: MIC, broth microdilution; type: cell-based, Pseudomonas aeruginosa; details: Pseudomonas aeruginosa, ATCC27853, 24 h, ATCC strain
Experimental: as §1, §2

| Compound | MIC [1] [µg/mL] | MIC [2] [µg/mL] | IC50 [3] [µg/mL] | also measured |
| --- | --- | --- | --- | --- |
| CC(C)OC(=O)CCC(C)C1CCC2C3CCC4CC(NCCCNCCCN)CCC4(C)C3CC(O)C12C (stereo not shown) [Claramine A04] | 3 (≈ 5.48 µM) | 14 (≈ 25.6 µM) | 57 (≈ 104 µM) |  |
| CCOC(=O)CCC(C)C1CCC2C3CCC4CC(NCCCNCCCCNCCCN)CCC4(C)C3CC(O)C12C (stereo not shown) [Claramine A20] |  |  | 25 (≈ 41.3 µM) |  |
| CCCCOC(=O)CCC(C)C1CCC2C3CCC4CC(NCCCNCCCCNCCCN)CCC4(C)C3CC(O)C12C (stereo not shown) [Claramine A21] |  |  | 4 (≈ 6.32 µM) |  |
| CC(CCC(=O)OC(C)(C)C)C1CCC2C3CCC4CC(NCCCNCCCCNCCCN)CCC4(C)C3CC(O)C12C (stereo not shown) [Claramine A22] | < 4 |  | > 35 | IC50 CHO [3]: 38 µg/mL (≈ 60 µM) |
| CC(CCC(=O)OCC(F)(F)F)C1CCC2C3CCC4CC(NCCCNCCCCNCCCN)CCC4(C)C3CC(O)C12C (stereo not shown) [Claramine A24] |  |  | 76 (≈ 115 µM) |  |
| CC(CCC(=O)OC(C(F)(F)F)C(F)(F)F)C1CCC2C3CCC4CC(NCCCNCCCCNCCCN)CCC4(C)C3CC(O)C12C (stereo not shown) [Claramine A25] |  |  | 4 (≈ 5.5 µM) |  |
| CC(C)OC(=O)CCC(C)C1CCC2C3CCC4CC(NCCCN5CCN(CCCN)CC5)CCC4(C)C3CC(O)C12C (stereo not shown) [Claramine A26] | 62 (≈ 100 µM) | 62 (≈ 100 µM) | 160 (≈ 259 µM) |  |
| CC(C)OC(=O)CCC(C)C1CCC2C3CCC4CC(NCCN(CCN)CCN)CCC4(C)C3CC(O)C12C (stereo not shown) [Claramine A29] | 14 (≈ 24.9 µM) | 56 (≈ 99.5 µM) | 141 (≈ 250 µM) |  |
| COC(=O)CCC(C)C1CCC2C3C(O)CC4CC(NCCCNCCCN)CCC4(C)C3CC(O)C12C (stereo not shown) [Claramine B02] | 7 (≈ 13.1 µM) | 13 (≈ 24.3 µM) | 27 (≈ 50.4 µM) |  |
| CC(C)OC(=O)CCC(C)C1CCC2C3C(O)CC4CC(NCCCNCCCCNCCCN)CCC4(C)C3CC(O)C12C (stereo not shown) [Claramine B12] | 8 (≈ 12.6 µM) | 8 (≈ 12.6 µM) | 48 (≈ 75.6 µM) | MIC [4]: 8 µg/mL (≈ 12.6 µM); MIC [5]: 4 µg/mL (≈ 6.3 µM); MIC [6]: 32 µg/mL (≈ 50.4 µM); MIC [7]: 62 µg/mL (≈ 97.6 µM); MIC [8]: 4 µg/mL (≈ 6.3 µM); MIC [9]: 16 µg/mL (≈ 25.2 µM) |
| CC(C)OC(=O)CCC(C)C1CCC2C3C(O)CC4CC(NCCCNCCCCN)CCC4(C)C3CC(O)C12C (stereo not shown) [Claramine B14] | 14 (≈ 24.2 µM) | 7 (≈ 12.1 µM) | 67 (≈ 116 µM) | MIC [4]: 7 µg/mL (≈ 12.1 µM); MIC [5]: 4 µg/mL (≈ 6.92 µM); MIC [6]: 30 µg/mL (≈ 51.9 µM); MIC [7]: 30 µg/mL (≈ 51.9 µM); MIC [8]: 4 µg/mL (≈ 6.92 µM); MIC [9]: 15 µg/mL (≈ 26 µM) |
| CC(C)OC(=O)CCC(C)C1CCC2C3C(O)CC4CC(NCCCNCCCN)CCC4(C)C3CC(O)C12C (stereo not shown) [Claramine B15] | 14 (≈ 24.8 µM) | 28 (≈ 49.7 µM) | 113 (≈ 200 µM) |  |
| CC(C)OC(=O)CCC(C)C1CCC2C3C(O)CC4CC(NCCCN5CCN(CCCN)CC5)CCC4(C)C3CC(O)C12C (stereo not shown) [Claramine B16] | 16 (≈ 25.3 µM) | 16 (≈ 25.3 µM) | 260 (≈ 411 µM) |  |
